According to publication PMC11067709 (Clinical and Translational Science, 2024):
Where two headings read alike, the source gives them in different places.

Assays:
CYP2D6 = conditions: CYP isoform 2D6; cited from earlier work
[1] = Pharmacokinetic interaction study, fexuprazan and celecoxib; type: in vivo, healthy Korean male subjects; conditions: 5 days; for Tmax: T max,ss; for Tmax / T max,ss: median [minimum–maximum]; for Vd/F: V ss/F
[2] = cited from earlier work; for intra‐subject variability for the PK parameter (C max): NSAIDs, ref previously reported
[3] = Safety and tolerability, adverse events, Cohort 1; type: in vivo, healthy Korean male subjects
[4] = Safety and tolerability, adverse events, Cohort 2; type: in vivo, healthy Korean male subjects
[5] = for AUCτ,ss / C max,ss / MR, metabolic ratio of fexuprazan (AUCτ,M14/AUCτ,fexuprazan) / V ss/F / t 1/2 / T max,ss: 5 days; for AUCτ,ss / C max,ss / MR, metabolic ratio of fexuprazan (AUCτ,M14/AUCτ,fexuprazan) / V ss/F / t 1/2: mean ± SD; for T max,ss: median [minimum–maximum]
[6] = Safety and tolerability, adverse events, Cohort 3; type: in vivo, healthy Korean male subjects
[7] = cited from earlier work
[8] = test system: uptake or efflux transporters; conditions: cited from earlier work
transporters = conditions: at the effective dose of 40 mg; cited from earlier work
[9] = for T max: median [minimum–maximum]
CYP2C9 = conditions: CYP isoform 2C9; cited from earlier work
clinical = conditions: male, human, in vivo, po, 15 mg, T max,ss, 7 days, Arm E, median [minimum–maximum]
[10] = combination: fexuprazan 40 mg BID + celecoxib 200 mg BID, Arm B, mean ± SD
[11] = monotherapy: fexuprazan 40 mg BID, Arm B (Cohort 1), mean ± SD
[12] = combination: fexuprazan 40 mg BID + naproxen 500 mg BID, Arm D
[13] = monotherapy: fexuprazan 40 mg BID, Arm D (Cohort 2)
[14] = combination: fexuprazan 40 mg BID + meloxicam 15 mg QD, 7 days, Arm F, mean ± SD
[15] = monotherapy: fexuprazan 40 mg BID, 5 days, Arm F (Cohort 3), mean ± SD

Cc1ccc(-c2cc(C(F)(F)F)nn2-c2ccc(S(N)(=O)=O)cc2)cc1 [Celecoxib]
inhibitory effect of NSAIDs on the CYP isoform (CYP2D6): moderate inhibitory effects
AUC ([1]; male, human, plasma, po, 200 mg, AUCτ,ss, combination: celecoxib 200 mg BID + fexuprazan 40 mg BID, Arm A, mean ± SD): 8110 ± 2550 ng·h/mL
Cmax ([1]; male, human, plasma, po, 200 mg, C max,ss, monotherapy: celecoxib 200 mg BID, Arm A, mean ± SD): 1080 ± 315 ng/mL
Tmax ([1]; male, human, plasma, po, 200 mg, combination: celecoxib 200 mg BID + fexuprazan 40 mg BID, Arm A): 3 h
Tmax ([1]; male, human, plasma, po, 200 mg, monotherapy: celecoxib 200 mg BID, Arm A): 2.5 h
Vd/F ([1]; male, human, plasma, po, 200 mg, combination: celecoxib 200 mg BID + fexuprazan 40 mg BID, Arm A, mean ± SD): 358 ± 126 L
Vd/F ([1]; male, human, plasma, po, 200 mg, monotherapy: celecoxib 200 mg BID, Arm A, mean ± SD): 416 ± 235 L
half-life ([1]; male, human, plasma, po, 200 mg, t 1/2, combination: celecoxib 200 mg BID + fexuprazan 40 mg BID, Arm A, mean ± SD): 570 ± 198 min
half-life ([1]; male, human, plasma, po, 200 mg, t 1/2, monotherapy: celecoxib 200 mg BID, Arm A, mean ± SD): 564 ± 300 min
intra‐subject variability for the PK parameter (C max) [2]: 31.8%
elimination half‐life ([2]; celecoxib): 12.4 h

CNCc1cn(S(=O)(=O)c2cccc(F)c2)c(-c2ccc(F)cc2F)c1OC [Fexuprazan]
AUCτ,ss [1, 10]: 570.2 ± 255.7 µg·h/L
C max,ss [1, 10]: 71.3 ± 32.4 µg/L
MR, metabolic ratio of fexuprazan (AUCτ,M14/AUCτ,fexuprazan) [1, 10]: 3.82 ± 2.72
V ss/F [1, 10]: 1136.7 ± 730.7 L
t 1/2 [1, 10]: 8.5 ± 0.8 h
T max,ss ([1]; combination: fexuprazan 40 mg BID + celecoxib 200 mg BID, Arm B): 2.5 [1.0–6.0] h
AUCτ,ss [1, 11]: 555.3 ± 239.6 µg·h/L
C max,ss [1, 11]: 65.6 ± 30.1 µg/L
MR, metabolic ratio of fexuprazan (AUCτ,M14/AUCτ,fexuprazan) [1, 11]: 3.56 ± 2.50
V ss/F [1, 11]: 1203.2 ± 788.6 L
t 1/2 [1, 11]: 8.7 ± 1.2 h
T max,ss ([1]; monotherapy: fexuprazan 40 mg BID, Arm B (Cohort 1)): 3.0 [1.0–6.0] h
percentage of subjects with AEs [3]: 33.3%
Summary of AEs: number of events [4]: six
percentage of subjects with AEs [4]: 33.3%
AUCτ,ss [5, 12]: 728.7 ± 463.2 µg·h/L
C max,ss [5, 12]: 89.2 ± 52.5 µg/L
MR, metabolic ratio of fexuprazan (AUCτ,M14/AUCτ,fexuprazan) [5, 12]: 2.03 ± 1.25
V ss/F [5, 12]: 808.9 ± 503.9 L
t 1/2 [5, 12]: 7.8 ± 1.1 h
T max,ss [5, 12]: 3.0 [1.5–4.0] h
increase in systemic exposure ([5]; fexuprazan co-administered with naproxen vs fexuprazan alone): approximately 20%
AUCτ,ss [5, 13]: 591.7 ± 271.7 µg·h/L
C max,ss [5, 13]: 72.5 ± 37.0 µg/L
MR, metabolic ratio of fexuprazan (AUCτ,M14/AUCτ,fexuprazan) [5, 13]: 2.65 ± 1.22
V ss/F [5, 13]: 1028.6 ± 506.2 L
t 1/2 [5, 13]: 8.6 ± 0.9 h
T max,ss [5, 13]: 2.5 [1.0–6.0] h
Summary of AEs: number of events [6]: eight
percentage of subjects with AEs [6]: 23.5%
multiple dose with established safety and tolerability ([7]; multiple doses for 7 days): up to 160 mg
single dose with established safety and tolerability ([7]; single dose): up to 320 mg
substrate for uptake or efflux transporters [8]: not a substrate
potential for inhibitory effects on transporters (transporters): low potential
AUCτ,ss [9, 14]: 674.7 ± 379.2 µg·h/L
C max,ss [9, 14]: 83.2 ± 46.2 µg/L
V ss/F [9, 14]: 1427.7 ± 1984.4 L
t 1/2 [9, 14]: 8.6 ± 2.1 h
T max ([9]; combination: fexuprazan 40 mg BID + meloxicam 15 mg QD, 7 days, Arm F): 2.5 [1.5–4.0] h
AUCτ,ss [9, 15]: 728.3 ± 403.5 µg·h/L
C max,ss [9, 15]: 82.8 ± 45.5 µg/L
MR, metabolic ratio of fexuprazan (AUCτ,M14/AUCτ,fexuprazan) [9, 15]: 2.50 ± 1.64
V ss/F [9, 15]: 1161.1 ± 1231.1 L
t 1/2 [9, 15]: 9.6 ± 2.2 h
T max ([9]; monotherapy: fexuprazan 40 mg BID, 5 days, Arm F (Cohort 3)): 2.5 [1.5–8.0] h
elimination half‐life ([2]; fexuprazan): 7.5 to 9.5 h

Cc1cnc(NC(=O)C2=C(O)c3ccccc3S(=O)(=O)N2C)s1 [Meloxicam]
inhibitory effect of NSAIDs on the CYP isoform (CYP2C9): relatively weak inhibitor
Tmax (clinical; combination: meloxicam 15 mg QD + fexuprazan 40 mg BID): 4.5 h
Tmax (clinical; monotherapy: meloxicam 15 mg QD): 5 h
intra‐subject variability for the PK parameter (C max) [2]: 9.8%

COc1ccc2cc([C@H](C)C(=O)O)ccc2c1 [Naproxen]
intra‐subject variability for the PK parameter (C max) [2]: 8.4%
